Data published in ChEMBL document CHEMBL1201862, “PubChem BioAssay data set” (2004).
Activity calls are given as the source filed them.

Experiments:
[1] = molecular target: Heat shock 70 kDa protein 1A (Homo sapiens, UniProt P0DMV8); assay: Hsp70 inhibitors, SAR follow-up, biochemical, fluorescence polarization (AID 1072)
[2] = molecular target: T1, Rac GTPase-activating protein 1 (Homo sapiens, UniProt Q9H0H5); assay: MgcRacGAP GTPase-activating activity inhibitors, confirmation, biochemical, ADP Hunter fluorescence, primary and confirmatory (AID 624330); type: functional
T1 sequence (Q9H0H5 whole entry): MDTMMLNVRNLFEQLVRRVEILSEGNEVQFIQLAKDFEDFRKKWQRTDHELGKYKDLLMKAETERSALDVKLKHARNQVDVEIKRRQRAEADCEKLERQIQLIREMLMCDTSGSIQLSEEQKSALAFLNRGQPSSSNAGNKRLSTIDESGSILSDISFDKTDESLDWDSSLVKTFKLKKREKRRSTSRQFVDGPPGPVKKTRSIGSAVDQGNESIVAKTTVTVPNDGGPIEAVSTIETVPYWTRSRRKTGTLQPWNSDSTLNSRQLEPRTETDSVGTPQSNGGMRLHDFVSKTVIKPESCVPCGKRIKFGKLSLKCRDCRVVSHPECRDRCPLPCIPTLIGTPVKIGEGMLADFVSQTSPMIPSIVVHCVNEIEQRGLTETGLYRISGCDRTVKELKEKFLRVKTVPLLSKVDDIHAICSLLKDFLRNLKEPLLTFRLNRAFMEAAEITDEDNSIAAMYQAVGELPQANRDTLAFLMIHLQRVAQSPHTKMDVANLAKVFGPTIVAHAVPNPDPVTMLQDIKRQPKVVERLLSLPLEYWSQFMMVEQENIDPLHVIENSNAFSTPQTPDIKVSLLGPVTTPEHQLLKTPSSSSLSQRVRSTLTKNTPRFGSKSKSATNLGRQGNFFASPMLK

[3] = molecular target: T2, Carboxy-terminal domain RNA polymerase II polypeptide A small phosphatase 1 (Homo sapiens, UniProt Q9GZU7); assay: inhibitors of CTDSP1, concentration-response testing, biochemical assay, absorbance-based, actives from ultra-high-throughput screening (AID 540297); type: functional
T2 sequence (Q9GZU7 whole entry): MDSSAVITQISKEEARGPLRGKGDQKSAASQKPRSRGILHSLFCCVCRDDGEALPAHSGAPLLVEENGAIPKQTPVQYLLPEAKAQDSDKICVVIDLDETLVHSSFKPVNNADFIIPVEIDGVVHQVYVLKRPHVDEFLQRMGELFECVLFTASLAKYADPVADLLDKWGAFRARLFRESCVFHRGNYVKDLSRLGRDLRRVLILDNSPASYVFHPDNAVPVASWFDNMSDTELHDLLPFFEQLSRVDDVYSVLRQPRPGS

[4] = system: INS1; assay: beta cell apoptosis inhibitors, cytokine rescue, dose response, luminescence, retest (AID 449756); type: functional, cell-based; settings: Rattus norvegicus;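 also: cell death triggered by IL-1 beta plus TNF-alpha plus IFN-gamma mixture; protective hits raise ATP signal compared with cytokine alone wells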
[5] = cytotoxicity toward NIH3T3 fibroblasts, dose response, counter-screen, cell-based, ATP luminescence, mouse fibroblasts (AID 2010); type: functional;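 also: cells exposed to compound for about 90 hours before reading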
[6] = molecular target: Vascular endothelial growth factor receptor 3 (Homo sapiens, UniProt P35916); type: functional;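 also: value from a kinome-wide profiling panel, with FLT4 as the panel member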
Chain of Vascular endothelial growth factor receptor 3 (P35916 whole entry): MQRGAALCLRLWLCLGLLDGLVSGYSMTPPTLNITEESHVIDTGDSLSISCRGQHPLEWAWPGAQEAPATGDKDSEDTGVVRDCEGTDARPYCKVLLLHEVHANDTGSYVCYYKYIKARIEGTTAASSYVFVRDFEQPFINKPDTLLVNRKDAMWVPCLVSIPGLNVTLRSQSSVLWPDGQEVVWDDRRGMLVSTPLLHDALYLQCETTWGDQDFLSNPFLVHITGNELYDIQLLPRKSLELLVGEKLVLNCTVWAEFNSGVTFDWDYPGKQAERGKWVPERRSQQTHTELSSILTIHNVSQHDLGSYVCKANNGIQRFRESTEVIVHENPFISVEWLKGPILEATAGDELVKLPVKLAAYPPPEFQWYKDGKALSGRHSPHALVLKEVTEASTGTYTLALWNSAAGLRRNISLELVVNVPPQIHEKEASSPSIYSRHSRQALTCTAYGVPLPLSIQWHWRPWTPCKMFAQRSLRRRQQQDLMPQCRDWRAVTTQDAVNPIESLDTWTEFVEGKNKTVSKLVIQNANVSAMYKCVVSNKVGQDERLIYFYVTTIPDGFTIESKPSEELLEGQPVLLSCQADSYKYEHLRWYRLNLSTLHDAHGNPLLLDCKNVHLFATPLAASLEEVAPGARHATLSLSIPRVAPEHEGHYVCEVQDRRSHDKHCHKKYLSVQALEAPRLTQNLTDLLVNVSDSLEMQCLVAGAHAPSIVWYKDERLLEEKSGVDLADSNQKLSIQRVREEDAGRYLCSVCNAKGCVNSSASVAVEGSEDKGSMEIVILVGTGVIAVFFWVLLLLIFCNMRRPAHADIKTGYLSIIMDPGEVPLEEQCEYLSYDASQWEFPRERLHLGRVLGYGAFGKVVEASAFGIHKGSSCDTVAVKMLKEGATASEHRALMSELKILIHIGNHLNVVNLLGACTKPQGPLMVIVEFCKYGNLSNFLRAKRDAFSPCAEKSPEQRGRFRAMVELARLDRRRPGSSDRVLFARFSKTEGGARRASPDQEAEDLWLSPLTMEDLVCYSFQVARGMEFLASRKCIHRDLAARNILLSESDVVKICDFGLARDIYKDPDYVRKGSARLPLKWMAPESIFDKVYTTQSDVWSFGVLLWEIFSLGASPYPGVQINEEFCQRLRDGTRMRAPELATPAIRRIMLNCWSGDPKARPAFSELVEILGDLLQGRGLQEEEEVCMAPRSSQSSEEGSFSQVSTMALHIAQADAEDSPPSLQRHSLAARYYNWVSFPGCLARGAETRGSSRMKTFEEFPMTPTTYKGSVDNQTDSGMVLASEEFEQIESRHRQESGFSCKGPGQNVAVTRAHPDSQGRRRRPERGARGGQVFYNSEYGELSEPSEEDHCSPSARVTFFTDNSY

[7] = molecular target: Tyrosine-protein kinase SYK (Homo sapiens, UniProt P43405); type: functional
[8] = molecular target: Proto-oncogene tyrosine-protein kinase Src (Homo sapiens, UniProt P12931); type: functional;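 also: SRC entry within a kinome-wide kinase profiling panel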
[9] = molecular target: Serine/threonine-protein kinase N2 (Homo sapiens, UniProt Q16513); type: functional
[10] = molecular target: Tyrosine-protein kinase ABL1 (Homo sapiens, UniProt P00519); type: functional
Chain of Tyrosine-protein kinase ABL1 (P00519 whole entry, canonical isoform): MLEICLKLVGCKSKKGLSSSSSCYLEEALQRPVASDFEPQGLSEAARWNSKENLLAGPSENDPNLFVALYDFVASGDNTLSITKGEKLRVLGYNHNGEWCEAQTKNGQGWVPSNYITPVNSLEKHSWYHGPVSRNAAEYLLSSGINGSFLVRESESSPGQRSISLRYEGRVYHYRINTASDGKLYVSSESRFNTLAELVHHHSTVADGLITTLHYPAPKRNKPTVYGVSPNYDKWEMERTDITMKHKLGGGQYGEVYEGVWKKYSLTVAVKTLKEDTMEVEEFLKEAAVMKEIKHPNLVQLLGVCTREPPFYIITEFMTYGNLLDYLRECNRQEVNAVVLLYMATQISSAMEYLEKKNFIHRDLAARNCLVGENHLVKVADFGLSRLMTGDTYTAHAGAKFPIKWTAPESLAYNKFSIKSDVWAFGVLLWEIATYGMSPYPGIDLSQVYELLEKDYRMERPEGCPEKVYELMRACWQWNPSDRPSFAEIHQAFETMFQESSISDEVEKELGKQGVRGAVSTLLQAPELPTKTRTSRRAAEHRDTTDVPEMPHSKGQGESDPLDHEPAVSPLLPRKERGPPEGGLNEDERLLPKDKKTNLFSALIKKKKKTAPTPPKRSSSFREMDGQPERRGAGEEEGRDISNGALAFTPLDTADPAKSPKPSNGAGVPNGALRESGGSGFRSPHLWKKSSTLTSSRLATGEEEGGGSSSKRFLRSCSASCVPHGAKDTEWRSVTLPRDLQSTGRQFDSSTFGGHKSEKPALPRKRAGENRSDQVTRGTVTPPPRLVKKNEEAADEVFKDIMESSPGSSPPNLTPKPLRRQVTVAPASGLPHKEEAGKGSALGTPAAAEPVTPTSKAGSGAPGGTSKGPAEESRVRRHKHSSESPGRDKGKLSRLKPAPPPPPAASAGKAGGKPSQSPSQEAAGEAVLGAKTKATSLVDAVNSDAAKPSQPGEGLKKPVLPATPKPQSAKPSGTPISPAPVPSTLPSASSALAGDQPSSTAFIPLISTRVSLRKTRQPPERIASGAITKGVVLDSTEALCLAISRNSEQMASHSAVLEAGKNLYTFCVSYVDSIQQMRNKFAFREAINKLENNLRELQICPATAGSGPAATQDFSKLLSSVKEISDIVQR

[11] = molecular target: Phosphorylase b kinase gamma catalytic chain, liver/testis isoform (Homo sapiens, UniProt P15735); type: functional;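 also: PHKG2 measured as one member of a kinome-wide kinase panel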
[12] = molecular target: Serine/threonine-protein kinase PAK 4 (Homo sapiens, UniProt O96013); type: functional;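 also: value obtained within a kinome profiling panel in which PAK4 was one of the panel members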
[13] = molecular target: Receptor-type tyrosine-protein kinase FLT3 (Homo sapiens, UniProt P36888); type: functional;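 also: FLT3 was tested as one member of a kinome-wide kinase panel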
[14] = molecular target: Fibroblast growth factor receptor 3 (Homo sapiens, UniProt P22607); type: functional
[15] = molecular target: Focal adhesion kinase 1 (Homo sapiens, UniProt Q05397); type: functional;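 also: measured as one member of a kinome panel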
[16] = molecular target: Calcium/calmodulin-dependent protein kinase type 1 (Homo sapiens, UniProt Q14012); type: functional
Chain of Calcium/calmodulin-dependent protein kinase type 1 (Q14012 whole entry): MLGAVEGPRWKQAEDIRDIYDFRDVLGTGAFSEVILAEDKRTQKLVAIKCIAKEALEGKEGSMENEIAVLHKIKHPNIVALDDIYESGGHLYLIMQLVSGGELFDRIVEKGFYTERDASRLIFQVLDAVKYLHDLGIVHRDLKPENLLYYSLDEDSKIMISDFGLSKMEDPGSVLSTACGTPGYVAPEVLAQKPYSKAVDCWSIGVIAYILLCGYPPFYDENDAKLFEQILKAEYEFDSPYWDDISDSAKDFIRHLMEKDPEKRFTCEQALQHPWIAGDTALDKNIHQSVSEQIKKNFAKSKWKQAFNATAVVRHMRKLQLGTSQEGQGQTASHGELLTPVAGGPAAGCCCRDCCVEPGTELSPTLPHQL

[17] = molecular target: Serine/threonine-protein kinase D2 (Homo sapiens, UniProt Q9BZL6); type: functional;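 also: measured against PRKD2 as one member of a kinome-wide kinase profiling panel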
[18] = molecular target: Serine/threonine-protein kinase PLK1 (Homo sapiens, UniProt P53350); type: functional;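 also: PLK1 measured as one member of a kinome-wide profiling panel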
[19] = molecular target: Glycogen synthase kinase-3 beta (Homo sapiens, UniProt P49841); type: functional;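 also: value comes from a broad kinome profiling panel, with GSK3B as the panel member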
Chain of Glycogen synthase kinase-3 beta (P49841 whole entry): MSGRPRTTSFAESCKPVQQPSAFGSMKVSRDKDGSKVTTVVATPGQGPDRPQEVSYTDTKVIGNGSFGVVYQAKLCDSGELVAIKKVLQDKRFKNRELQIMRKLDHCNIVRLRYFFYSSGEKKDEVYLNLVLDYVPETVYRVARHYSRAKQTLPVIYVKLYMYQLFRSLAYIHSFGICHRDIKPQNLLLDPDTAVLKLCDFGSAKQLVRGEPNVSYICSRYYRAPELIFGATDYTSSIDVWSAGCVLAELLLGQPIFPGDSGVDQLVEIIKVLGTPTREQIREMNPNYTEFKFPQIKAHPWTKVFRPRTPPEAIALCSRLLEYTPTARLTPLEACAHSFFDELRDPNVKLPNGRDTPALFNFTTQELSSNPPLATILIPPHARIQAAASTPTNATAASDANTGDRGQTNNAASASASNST

[20] = molecular target: Eukaryotic elongation factor 2 kinase (Homo sapiens, UniProt O00418); type: functional
[21] = molecular target: cGMP-dependent protein kinase 1 (Homo sapiens, UniProt Q13976); type: functional;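 also: value from a kinome panel screen with PRKG1 as the panel member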
[22] = molecular target: cAMP-dependent protein kinase catalytic subunit PRKX (Homo sapiens, UniProt P51817); type: functional
Chain of cAMP-dependent protein kinase catalytic subunit PRKX (P51817 whole entry): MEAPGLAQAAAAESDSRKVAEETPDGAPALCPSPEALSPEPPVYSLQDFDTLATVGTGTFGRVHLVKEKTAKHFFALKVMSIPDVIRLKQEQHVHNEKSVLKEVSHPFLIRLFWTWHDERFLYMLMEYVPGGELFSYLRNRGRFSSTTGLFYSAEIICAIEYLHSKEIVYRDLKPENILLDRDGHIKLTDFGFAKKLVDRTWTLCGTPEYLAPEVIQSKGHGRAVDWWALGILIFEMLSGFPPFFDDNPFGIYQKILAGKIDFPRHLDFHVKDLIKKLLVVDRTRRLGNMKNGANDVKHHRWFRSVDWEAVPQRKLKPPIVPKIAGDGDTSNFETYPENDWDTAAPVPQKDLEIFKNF

[23] = molecular target: 3-phosphoinositide-dependent protein kinase 1 (Homo sapiens, UniProt O15530); type: functional;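 also: value comes from the Navigating the Kinome panel, PDPK1 member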
Chain of 3-phosphoinositide-dependent protein kinase 1 (O15530 whole entry): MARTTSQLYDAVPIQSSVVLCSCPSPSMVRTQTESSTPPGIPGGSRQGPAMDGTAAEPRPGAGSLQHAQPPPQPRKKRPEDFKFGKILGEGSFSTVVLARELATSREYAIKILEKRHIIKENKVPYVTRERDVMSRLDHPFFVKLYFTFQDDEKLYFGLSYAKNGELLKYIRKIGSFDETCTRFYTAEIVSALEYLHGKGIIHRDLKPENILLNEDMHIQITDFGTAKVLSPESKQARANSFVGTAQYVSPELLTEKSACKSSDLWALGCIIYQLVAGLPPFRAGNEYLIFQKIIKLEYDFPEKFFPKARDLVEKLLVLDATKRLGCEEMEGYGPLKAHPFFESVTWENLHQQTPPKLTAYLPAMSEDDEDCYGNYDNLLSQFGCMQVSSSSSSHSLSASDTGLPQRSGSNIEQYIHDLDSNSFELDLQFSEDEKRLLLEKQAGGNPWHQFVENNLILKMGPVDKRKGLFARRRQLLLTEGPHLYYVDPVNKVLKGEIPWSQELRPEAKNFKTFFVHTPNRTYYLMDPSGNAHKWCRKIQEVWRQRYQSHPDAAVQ

[24] = molecular target: T3, Caspase-6 (Homo sapiens, UniProt P55212); assay: human caspase-6 inhibitors, dose response, biochemical, VEID-R110 fluorescence, cherry-pick (AID 720632)
T3 sequence (P55212 whole entry): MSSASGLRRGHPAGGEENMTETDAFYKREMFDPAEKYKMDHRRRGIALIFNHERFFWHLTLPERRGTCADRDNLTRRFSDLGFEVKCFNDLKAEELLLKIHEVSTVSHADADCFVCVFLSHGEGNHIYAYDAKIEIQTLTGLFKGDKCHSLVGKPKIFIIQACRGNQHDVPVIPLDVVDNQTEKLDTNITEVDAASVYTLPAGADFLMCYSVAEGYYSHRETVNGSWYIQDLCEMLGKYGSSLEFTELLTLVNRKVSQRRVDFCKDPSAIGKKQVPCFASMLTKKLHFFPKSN

[25] = molecular target: Exodeoxyribonuclease V (Escherichia coli (strain K12), UniProt P04993+P07648+P08394); assay: E. coli RecBCD inhibitors, dose response, counter-screen for AddAB inhibitor project, absorbance, V66 E. coli, mutant T4 phage (AID 492957); type: functional, cell-based, Escherichia coli str. K-12 substr. MG1655
[26] = molecular target: Intestinal-type alkaline phosphatase (Homo sapiens, UniProt P09923); assay: Dose Response confirmation of uHTS hits from a small molecule inhibitors of human intestinal alkaline phosphatase via a luminescent assay. [Related pubchem assays (depositor defined):AID2544, AID2574]; type: functional

Chain of Heat shock 70 kDa protein 1A (P0DMV8 whole entry): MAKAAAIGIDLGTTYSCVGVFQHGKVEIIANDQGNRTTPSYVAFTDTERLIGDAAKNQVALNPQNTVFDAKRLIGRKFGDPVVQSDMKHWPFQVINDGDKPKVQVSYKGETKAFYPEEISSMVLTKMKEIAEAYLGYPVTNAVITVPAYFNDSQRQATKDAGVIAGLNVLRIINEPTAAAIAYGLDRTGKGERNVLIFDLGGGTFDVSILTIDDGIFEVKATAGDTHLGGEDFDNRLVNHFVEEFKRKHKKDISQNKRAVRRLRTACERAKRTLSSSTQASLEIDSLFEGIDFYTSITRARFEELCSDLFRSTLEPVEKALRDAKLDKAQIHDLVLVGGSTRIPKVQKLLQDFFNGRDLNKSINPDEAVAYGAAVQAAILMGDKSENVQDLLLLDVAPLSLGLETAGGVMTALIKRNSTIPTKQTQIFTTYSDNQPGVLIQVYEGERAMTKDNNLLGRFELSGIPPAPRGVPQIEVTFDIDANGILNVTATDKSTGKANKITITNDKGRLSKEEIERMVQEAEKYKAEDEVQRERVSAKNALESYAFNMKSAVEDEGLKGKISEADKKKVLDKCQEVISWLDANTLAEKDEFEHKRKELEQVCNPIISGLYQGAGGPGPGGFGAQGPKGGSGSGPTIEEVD

Which results are given for `O=C(O)C1Nc2c(O)cc(Cl)c([N+](=O)[O-])c2C2C=CCC12` (configuration not stated)?
IC50 [1]: 22400 nM (active); IC50 [2]: 27900 nM (active)

Which IC50 [3] does the source give for `O=C1N=C(NS(=O)(=O)Cc2ccccc2)S/C1=C1\C(=O)Nc2ccccc21` here?
The IC50 was 16700 nM (active).

Which AC50 [4] does the source give for `O=C1C=C(N2CCCCC2)c2ccccc2C1=O` here?
The AC50 was 4980 nM (active).

For `O=C(CCc1ccccc1)NNc1cc(N2CCCCC2)nc(N2CCCCC2)n1`, which EC50 [5] is on record?
Its EC50 is > 60000 nM (not active).

Which Ki [6] does the source give for `Cc1n[nH]c2ccc(-c3cncc(OCC(N)Cc4cccc(Cl)c4)c3)cc12` (configuration not stated) here?
The Ki was 2510 nM (active).

And the Ki [7]?
The Ki was > 1580 nM (inactive).

What about the Ki [8] of the same molecule?
The Ki was > 2000 nM (inactive).

And the Ki [9]?
Its Ki is 15.8 nM (active).

What about the Ki [10] of the same molecule?
Its Ki is > 631 nM (inactive).

And the Ki [11]?
Its Ki is 794 nM (active).

What about the Ki [12] of the same molecule?
Its Ki is 31.6 nM (active).

And the Ki [13]?
The Ki was 158 nM (active).

And the Ki [14]?
The Ki was > 2000 nM (inactive).

And the Ki [15]?
The Ki was > 1580 nM (inactive).

And the Ki [16]?
Its Ki is 100 nM (active).

What about the pKi [16] of the same molecule?
The pKi was 7.

And the Ki [17]?
The Ki was 39.8 nM (active).

What about the Ki [18] of the same molecule?
Its Ki is > 7940 nM (inactive).

And the Ki [19]?
The Ki was 15.8 nM (active).

What about the Ki [20] of the same molecule?
Its Ki is > 3980 nM (inactive).

What about the Ki [21] of the same molecule?
Its Ki is 10 nM (active).

And the Ki [22]?
The Ki was 1 nM (active).

What about the Ki [23] of the same molecule?
The Ki was 2000 nM (active).

With `CC(=O)NC1C(=O)N(CCN2CCOCC2)c2ccc(F)cc21` (configuration not stated) as the molecule, how does the AC50 [24] read?
Its AC50 is 16000 nM (active).

For `Oc1ccc(N=Nc2c(O)ccc3ccccc23)cc1`, which IC50 [25] is on record?
The IC50 was > 118000 nM (inactive).

And the IC50 [26]?
Its IC50 is 17700 nM (inactive).
